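Results reflect a 48-hour exposure of cells in 96-well plates to compound at five concentrations. At the GI50, growth is halved.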 Activity calls are given as the source filed them. Rule as the data show it: active = GI50 up to about 1.1 µM and inactive = higher.
Columns and labels:
Test in all cases: DTP human tumour cell line panel, 48 h
OVCAR-4 = test system: OVCAR-4
SF-268 = test system: SF-268
T47D = test system: T47D
PC-3 = test system: PC-3
DU-145 = test system: DU-145
A498 = test system: A498
HCT-116 = test system: HCT-116
UACC-62 = test system: UACC-62
A549 = test system: A549
SR = test system: SR
SK-MEL-2 = test system: SK-MEL-2
NCI/ADR-RES = test system: NCI/ADR-RES
BT-549 = test system: BT-549
HL-60 = test system: HL-60
HCC 2998 = test system: HCC 2998
MDA-MB-435 = test system: MDA-MB-435
ACHN = test system: ACHN
SF-295 = test system: SF-295
Hs-578T = test system: Hs-578T
IGROV-1 = test system: IGROV-1
NCI-H460 = test system: NCI-H460
OVCAR-8 = test system: OVCAR-8
NCI-H522 = test system: NCI-H522
KM12 = test system: KM12
SK-MEL-5 = test system: SK-MEL-5
OVCAR-3 = test system: OVCAR-3
COLO 205 = test system: COLO 205
MCF7 = test system: MCF7
K562 = test system: K562
HT-29 = test system: HT-29
SW-620 = test system: SW-620
SN12C = test system: SN12C
RXF 393 = test system: RXF 393
EKVX = test system: EKVX
CCRF-CEM = test system: CCRF-CEM
TK-10 = test system: TK-10
UO-31 = test system: UO-31
MDA-MB-231 = test system: MDA-MB-231
CAKI-1 = test system: CAKI-1
HCT-15 = test system: HCT-15
OVCAR-5 = test system: OVCAR-5
Malme-3M = test system: Malme-3M
786-0 = test system: 786-0
UACC-257 = test system: UACC-257
U-251 = test system: U-251
SF-539 = test system: SF-539
HOP-62 = test system: HOP-62
NCI-H23 = test system: NCI-H23
SNB-75 = test system: SNB-75
LOX IMVI = test system: LOX IMVI
NCI-H226 = test system: NCI-H226
SNB-19 = test system: SNB-19
M14 = test system: M14
SK-OV-3 = test system: SK-OV-3
RPMI-8226 = test system: RPMI-8226
SK-MEL-28 = test system: SK-MEL-28
MOLT-4 = test system: MOLT-4
HOP-92 = test system: HOP-92
MDA-N = test system: MDA-N

Measured: GI50

COC(=O)C1=C(OC(=O)/C(=C/c2ccccc2)c2ccccc2)C(C(=O)OC)[C@@]2(O)[C@@H](C(=O)OC)[C@H](C)C[C@@H]1[C@@H]2C(=O)OC (some centres undefined)
> 100 µM: HCT-15
inactive: OVCAR-4 > 100 µM | SF-268 > 100 µM | T47D > 100 µM | PC-3 > 100 µM | DU-145 > 100 µM | A498 > 100 µM | HCT-116 > 100 µM | UACC-62 > 100 µM | A549 > 100 µM | SR > 100 µM | SK-MEL-2 > 100 µM | NCI/ADR-RES > 100 µM | BT-549 > 100 µM | HL-60 > 100 µM | HCC 2998 > 100 µM | MDA-MB-435 > 100 µM | ACHN > 100 µM | SF-295 69.7 µM | Hs-578T > 100 µM | IGROV-1 > 100 µM | NCI-H460 > 100 µM | OVCAR-8 > 100 µM | NCI-H522 45.4 µM | KM12 > 100 µM | SK-MEL-5 > 100 µM | OVCAR-3 > 100 µM | COLO 205 > 100 µM | MCF7 > 100 µM | K562 6.11 µM | HT-29 > 100 µM | SW-620 > 100 µM | SN12C > 100 µM | RXF 393 66.2 µM | EKVX > 100 µM | CCRF-CEM > 100 µM | TK-10 > 100 µM | UO-31 > 100 µM | MDA-MB-231 > 100 µM | CAKI-1 > 100 µM | OVCAR-5 > 100 µM | Malme-3M > 100 µM | 786-0 > 100 µM | UACC-257 > 100 µM | U-251 > 100 µM | SF-539 > 100 µM | HOP-62 > 100 µM | NCI-H23 > 100 µM | SNB-75 > 100 µM | LOX IMVI > 100 µM | NCI-H226 > 100 µM | SNB-19 > 100 µM | M14 > 100 µM | SK-OV-3 > 100 µM | RPMI-8226 2.67 µM | SK-MEL-28 > 100 µM

O=C(CSCC(=O)N/N=C\c1cc(Br)cc(Br)c1O)N/N=C\c1cc(Br)cc(Br)c1O
22.5 µM: HCT-15
inactive: OVCAR-4 14.4 µM | SF-268 11.3 µM | T47D 32.1 µM | PC-3 23.7 µM | DU-145 62.4 µM | HCT-116 19.6 µM | UACC-62 18 µM | A549 76.6 µM | SR 15 µM | MOLT-4 13 µM | SK-MEL-2 9.55 µM | NCI/ADR-RES 29.4 µM | BT-549 37.4 µM | MDA-MB-435 40.9 µM | ACHN 12.9 µM | SF-295 33.6 µM | Hs-578T 16.1 µM | IGROV-1 16.6 µM | NCI-H460 44.6 µM | OVCAR-8 18.9 µM | NCI-H522 11.7 µM | KM12 25.4 µM | SK-MEL-5 25 µM | OVCAR-3 17.6 µM | COLO 205 33.7 µM | MCF7 44.8 µM | K562 21.9 µM | HT-29 39.6 µM | SW-620 37 µM | SN12C 27.8 µM | HOP-92 19.5 µM | RXF 393 83.9 µM | EKVX 37.1 µM | TK-10 15.6 µM | UO-31 15.7 µM | CAKI-1 23.4 µM | OVCAR-5 > 100 µM | Malme-3M 14.4 µM | 786-0 32.5 µM | UACC-257 23.5 µM | U-251 4.28 µM | SF-539 20 µM | HOP-62 29.9 µM | NCI-H23 48.4 µM | SNB-75 24 µM | LOX IMVI 6.68 µM | NCI-H226 17.7 µM | SNB-19 65.6 µM | M14 11.6 µM | SK-OV-3 53.5 µM | SK-MEL-28 26.4 µM

CN(C)/C=N\c1nncc2[nH]cnc12
inactive: OVCAR-4 > 100 µM | T47D > 100 µM | PC-3 > 100 µM | A498 > 100 µM | HCT-116 87.3 µM | UACC-62 51.8 µM | A549 > 100 µM | MOLT-4 77.6 µM | SK-MEL-2 > 100 µM | NCI/ADR-RES > 100 µM | BT-549 > 100 µM | HL-60 > 10 µM | HCC 2998 > 100 µM | MDA-MB-435 63.5 µM | ACHN > 100 µM | SF-295 > 100 µM | IGROV-1 > 100 µM | OVCAR-8 > 100 µM | NCI-H522 > 100 µM | KM12 > 100 µM | SK-MEL-5 > 100 µM | OVCAR-3 > 100 µM | COLO 205 > 100 µM | MCF7 > 100 µM | K562 43.6 µM | HT-29 > 100 µM | SW-620 82.6 µM | SN12C > 100 µM | HOP-92 19.9 µM | EKVX > 100 µM | CCRF-CEM 46.1 µM | TK-10 73.6 µM | UO-31 98.6 µM | CAKI-1 > 100 µM | OVCAR-5 > 100 µM | Malme-3M 68.7 µM | MDA-N 79.8 µM | 786-0 > 100 µM | UACC-257 92.7 µM | U-251 > 100 µM | SF-539 > 100 µM | HOP-62 60.1 µM | NCI-H23 > 100 µM | SNB-75 > 100 µM | LOX IMVI 55.8 µM | NCI-H226 > 100 µM | M14 55.8 µM | SK-OV-3 > 100 µM | RPMI-8226 > 100 µM | SK-MEL-28 > 100 µM
> 100 µM: HCT-15

Source: ChEMBL document CHEMBL1201862, “PubChem BioAssay data set” (2004)
